Assay results from patent US20200060276A1, “THIAZOLE COMPOUND AND HERBICIDE” (OAT Agrio Co., Ltd., priority 2017, published 2020).

Assays:
Assay type in all cases: in vivo
[1] = test system: Echinochloa crus-galli (L.) P. Beauv. var. formosensis Ohwi; test: Test for Herbicidal Effect in Flooding Treatment (#1), ECHDG; settings: flooding treatment at seeding, dose 2 kg/ha, visual observation on day 21
Method in brief: (§1)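 Sieved soil in cups was flooded and left 24 h before weed seeds were sown. Compounds in acetone, diluted with Tween 80-containing water, were dropped over the whole surface at 2 kg/ha. After 21 days in a glasshouse, growth inhibition was scored visually from 0 (<10%) to 5 (≥90% or complete withering).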

Scirpus juncoides = test: Test for Herbicidal Effect in Flooding Treatment (#1), SCIJU; settings: flooding treatment at seeding, dose 2 kg/ha, visual observation on day 21
Method in brief: as §1

Digitaria ciliaris = test: Test for Herbicidal Effect in Soil Treatment (#3); settings: 504 h, dose of 2 kg/ha, day 21, visual observation, read-out: growth inhibition effect
Text: 0: Growth inhibition effect is less than 10%. 1: Growth inhibition effect is equal to or greater than 10%, and less than 30%. 2; Growth inhibition effect is equal to or greater than 30%, and less than 50%. 3: Growth inhibition effect equal to or greater than 50%, and less than 70%. 4: Growth inhibition effect is equal to or greater than 70%, and less than 90%. 5: Growth inhibition effect is equal to or greater than 90%, or complete withering is achieved. (#3) Test for Herbicidal Effect in Soil Treatment: Styrol cups each having an opening diameter of 8 cm (about 52 cm^2) were respectively filled with soil (45 ml) which had been passed through a sieve (2 mm). Water (about 115 ml) was added. Thereafter, Digitaria ciliaris was seeded. Each of the compounds of the present invention was dissolved in acetone, and the obtained product was then diluted with water containing Tween 80°. Each of the resultant chemical solutions was dropped on the entire surface of an associated one of treatment sections, so that each section was treated with 1 ml of the respective chemical solution (a dose of 2 kg/ha). After the treatment, the plants were grown in a glasshouse. On day 21, a survey was conducted on the herbicidal activity by visual observation, and evaluation was made according to the following criteria. The herbicidal activity of the following comparative compounds A and B (the compounds disclosed Japanese Unexamined Patent Publication No. 2003-096059) were evaluated.

[2] = test system: Echinochloa crus-galli (L.) P. Beauv. var. formosensis Ohwi; test: Test for Herbicidal Effect in Flooding Treatment (#2), ECHDG at 2-2.5 leaf stage; settings: for ECHDG (2-2.5L) #2 herbicidal effect (growth inhibition grade): flooding treatment at 2-2.5 leaf stage, dose 0.2 kg/ha, visual observation on day 21; for inhibition at 200 g/ha: Echinochloa crus-galli, 504 h, flooding treatment (#2), ECHDG at 2-2.5 leaf stage, dose of 0.2 kg/ha, day 21, visual observation, read-out: growth inhibition effect
Method in brief: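 Flooded muddy soil was seeded with the weed, and at 2–2.5 leaf stage compound in acetone/Tween 80 water was dropped on the water surface at 0.2 kg/ha. Plants were kept in a glasshouse and scored visually on day 21 from 0 (<10% growth inhibition) to 5 (≥90% or complete withering).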

Cyperus microiria = test: Test for Herbicidal Effect in Flooding Treatment (#1), CYMIC; settings: flooding treatment at seeding, dose 2 kg/ha, visual observation on day 21
Method in brief: as §1

Monochoria vaginalis = test: Test for Herbicidal Effect in Flooding Treatment (#1), MONVA; settings: flooding treatment at seeding, dose 2 kg/ha, visual observation on day 21
Method in brief: as §1

Question: `CCOc1c(F)cccc1CS(=O)(=O)c1ncc(Cl)s1` [Compound 1C-9] was tested. Which “ECHDG #1 herbicidal effect (growth inhibition grade)” value [1] did it give?
Answer: The value was 5 (Growth inhibition effect is equal to or greater than 90%, or complete withering is achieved).

Question: And the “SCIJU #1 herbicidal effect (growth inhibition grade)” value (Scirpus juncoides)?
Answer: Its value is 5 (Growth inhibition effect is equal to or greater than 90%, or complete withering is achieved).

Question: What about the inhibition at 2000 g/ha (Digitaria ciliaris) of the same molecule?
Answer: The inhibition at 2000 g/ha was ≥ 50%.

Question: What about the “ECHDG (2-2.5L) #2 herbicidal effect (growth inhibition grade)” value [2] of the same molecule?
Answer: Its value is 5 (Growth inhibition effect is equal to or greater than 90%, or complete withering is achieved).

Question: What about the “CYMIC #1 herbicidal effect (growth inhibition grade)” value (Cyperus microiria) of the same molecule?
Answer: Its value is 5 (Growth inhibition effect is equal to or greater than 90%, or complete withering is achieved).

Question: How did the “ECHDG #1 herbicidal effect (growth inhibition grade)” value [1] turn out when `CCOc1ccc(F)cc1CS(=O)(=O)c1ncc(Cl)s1` [Compound 1C-15] was run?
Answer: Its value is 5 (Growth inhibition effect is equal to or greater than 90%, or complete withering is achieved).

Question: And the “SCIJU #1 herbicidal effect (growth inhibition grade)” value (Scirpus juncoides)?
Answer: Its value is 5 (Growth inhibition effect is equal to or greater than 90%, or complete withering is achieved).

Question: What about the inhibition at 2000 g/ha (Digitaria ciliaris) of the same molecule?
Answer: The inhibition at 2000 g/ha was ≥ 50%.

Question: What about the “ECHDG (2-2.5L) #2 herbicidal effect (growth inhibition grade)” value [2] of the same molecule?
Answer: The value was 5 (Growth inhibition effect is equal to or greater than 90%, or complete withering is achieved).

Question: What about the “CYMIC #1 herbicidal effect (growth inhibition grade)” value (Cyperus microiria) of the same molecule?
Answer: The value was 5 (Growth inhibition effect is equal to or greater than 90%, or complete withering is achieved).

Question: How did the “MONVA #1 herbicidal effect (growth inhibition grade)” value (Monochoria vaginalis) turn out when `CCOc1cc(F)c(F)cc1CS(=O)(=O)c1ncc(Cl)s1` [Compound 1C-29] was run?
Answer: The value was 5 (Growth inhibition effect is equal to or greater than 90%, or complete withering is achieved).

Question: What about the “ECHDG #1 herbicidal effect (growth inhibition grade)” value [1] of the same molecule?
Answer: The value was 5 (Growth inhibition effect is equal to or greater than 90%, or complete withering is achieved).

Question: What about the “SCIJU #1 herbicidal effect (growth inhibition grade)” value (Scirpus juncoides) of the same molecule?
Answer: Its value is 5 (Growth inhibition effect is equal to or greater than 90%, or complete withering is achieved).

Question: And the inhibition at 2000 g/ha (Digitaria ciliaris)?
Answer: Its inhibition at 2000 g/ha is ≥ 50%.

Question: And the “ECHDG (2-2.5L) #2 herbicidal effect (growth inhibition grade)” value [2]?
Answer: Its value is 5 (Growth inhibition effect is equal to or greater than 90%, or complete withering is achieved).

Question: And the “CYMIC #1 herbicidal effect (growth inhibition grade)” value (Cyperus microiria)?
Answer: The value was 5 (Growth inhibition effect is equal to or greater than 90%, or complete withering is achieved).

Question: Which results are given for `O=S(=O)(Cc1ccccc1OC(F)F)c1ncc(Cl)s1` [Compound 1C-38]?
Answer: MONVA #1 herbicidal effect (growth inhibition grade) (Monochoria vaginalis): 5 (Growth inhibition effect is equal to or greater than 90%, or complete withering is achieved); ECHDG #1 herbicidal effect (growth inhibition grade) [1]: 5 (Growth inhibition effect is equal to or greater than 90%, or complete withering is achieved); SCIJU #1 herbicidal effect (growth inhibition grade) (Scirpus juncoides): 5 (Growth inhibition effect is equal to or greater than 90%, or complete withering is achieved); inhibition at 2000 g/ha (Digitaria ciliaris): ≥ 90%; inhibition at 200 g/ha [2]: ≥ 90%; ECHDG (2-2.5L) #2 herbicidal effect (growth inhibition grade) [2]: 5 (Growth inhibition effect is equal to or greater than 90%, or complete withering is achieved); CYMIC #1 herbicidal effect (growth inhibition grade) (Cyperus microiria): 5 (Growth inhibition effect is equal to or greater than 90%, or complete withering is achieved)

Question: For `O=S(=O)(Cc1c(F)cccc1OC(F)F)c1ncc(Cl)s1` [Compound 1C-41, 5-chloro-2-{[2-(difluoromethoxy)-6-fluorophenyl][methanesulfonyl]}-1,3-thiazole], which “MONVA #1 herbicidal effect (growth inhibition grade)” value (Monochoria vaginalis) is on record?
Answer: The value was 5 (Growth inhibition effect is equal to or greater than 90%, or complete withering is achieved).

Question: And the “ECHDG #1 herbicidal effect (growth inhibition grade)” value [1]?
Answer: Its value is 5 (Growth inhibition effect is equal to or greater than 90%, or complete withering is achieved).

Question: And the “SCIJU #1 herbicidal effect (growth inhibition grade)” value (Scirpus juncoides)?
Answer: The value was 5 (Growth inhibition effect is equal to or greater than 90%, or complete withering is achieved).

Question: And the inhibition at 2000 g/ha (Digitaria ciliaris)?
Answer: Its inhibition at 2000 g/ha is ≥ 90%.

Question: What about the inhibition at 200 g/ha [2] of the same molecule?
Answer: The inhibition at 200 g/ha was ≥ 90%.

Question: What about the “ECHDG (2-2.5L) #2 herbicidal effect (growth inhibition grade)” value [2] of the same molecule?
Answer: The value was 5 (Growth inhibition effect is equal to or greater than 90%, or complete withering is achieved).
